Laboratory results as given in patent publication US8901315B2, “Thienopyrazole derivative having PDE7 inhibitory activity” (Daiichi Sankyo Company, Limited, priority 2004, dated 2014).
pIC50: −log10 of the molar value. Where a name gives a salt, the structure may show the parent alone.

What was measured:
[1] = biological target: PDE 7 (phosphodiesterase VII) (Homo sapiens (Human), UniProt Q13946); experiment: PDE 7 inhibiting effect (3H-cAMP hydrolysis, PDE 7 active fraction from MOLT-4 cells); format: biochemical; conditions: PDE 7 fraction from MOLT-4 cells, 0.064 μM cAMP, 10 μM rolipram, 2 hours at 25° C.; read-out: PDE7 IC50
Chain of PDE 7 (phosphodiesterase VII) (Q13946 whole entry): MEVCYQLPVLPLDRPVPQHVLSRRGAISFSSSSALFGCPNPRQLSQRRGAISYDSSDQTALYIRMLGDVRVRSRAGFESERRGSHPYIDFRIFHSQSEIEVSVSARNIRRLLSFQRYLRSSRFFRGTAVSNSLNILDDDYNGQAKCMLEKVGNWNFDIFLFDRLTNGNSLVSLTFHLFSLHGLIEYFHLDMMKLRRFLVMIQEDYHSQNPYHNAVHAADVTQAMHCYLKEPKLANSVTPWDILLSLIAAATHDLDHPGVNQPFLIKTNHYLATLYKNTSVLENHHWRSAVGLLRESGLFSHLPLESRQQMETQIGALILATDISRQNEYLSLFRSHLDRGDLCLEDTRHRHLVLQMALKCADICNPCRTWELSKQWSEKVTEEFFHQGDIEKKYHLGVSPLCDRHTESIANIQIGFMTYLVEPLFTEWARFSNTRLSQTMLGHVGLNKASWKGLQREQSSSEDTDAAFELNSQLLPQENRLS
Outline: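 ³H-cAMP hydrolysis by a PDE7-active fraction was followed, and the reaction was worked up with a Sephadex-QAE suspension (10 mM HEPES-Na, pH 7.0). Enzyme came from MOLT-4 cell soluble extract (pH 7.5 Tris buffer, 100,000×G supernatant), fractionated by HiTrap Q anion exchange with a 0–0.8 M NaCl gradient.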

[2] = biological target: PDE 4 (phosphodiesterase IV); experiment: PDE 4 inhibiting effect (3H-cAMP hydrolysis, PDE 4 active fraction from Balb/c mouse liver); format: biochemical; conditions: PDE 4 fraction from Balb/c mice liver, 0.064 μM cAMP, 2 hours at 25° C.; read-out: PDE4 IC50
Outline: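 Activity was measured as 3H-cAMP hydrolysis, with Sephadex-QAE added after the reaction. The enzyme was a PDE4-active fraction from 12-week male Balb/c mouse liver, taken from the ultracentrifuged soluble fraction by DEAE sepharose chromatography (0.05-1 M sodium acetate gradient, pH 6.5 buffer).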

| pIC50 [1] | pIC50 [2] | Structure (SMILES) |
| --- | --- | --- |
| 7.92 | 6.00 | CC(=O)N1CCN(c2ccc(NC(=O)c3cc4c(C)nn(C5CCCCC5)c4s3)cc2)CC1 [Example 73, N-[4-(4-Acetyl-1-piperazinyl)phenyl]-1-cyclohexyl-3-methyl-1H-thieno[2,3-c]pyrazole-5-carboxamide] |
| 7.29 | 5.24 | Cc1nn(C2CCCCC2)c2sc(C(=O)NCCN3CCN(C)C(=O)C3=O)cc12 [Example 228, 1-Cyclohexyl-3-methyl-N-[2-(4-methyl-2,3-dioxo-1-piperazinyl)ethyl]-1H-thieno[2,3-c]pyrazole-5-carboxamide] |
| 7.57 | 5.74 | COc1cc(NC(=O)c2cc3c(C)nn(C4CCCCC4)c3s2)ccc1NC(C)=O [Example 10, N-[4-(Acetylamino)-3-methoxyphenyl]-1-cyclohexyl-3-methyl-1H-thieno[2,3-c]pyrazole-5-carboxamide] |
| 8.14 | 6.03 | Cc1nn(C2CCCCC2)c2sc(C(=O)Nc3ccc(N4CCC(O)CC4)c(C(=O)O)c3)cc12 [Example 375] |
| 7.01 | 5.19 | Cc1nn(C2CCCCC2)c2sc(C(=O)Nc3ccc4c(c3)CCN4C(=O)C(C)(C)C)cc12 [Example 25, 1-Cyclohexyl-N-[1-(2,2-dimethylpropanoyl)-2,3-dihydro-1H-indol-5-yl]-3-methyl-1H-thieno[2,3-c]pyrazole-5-carboxamide] |
| 7.85 | 5.46 | Cc1nn(C2CCCCC2)c2sc(C(=O)Nc3ccc(C(=O)N(C)C)cc3)cc12 [Example 39, 1-Cyclohexyl-N-{4-[(dimethylamino)carbonyl]phenyl}-3-methyl-1H-thieno[2,3-c]pyrazole-5-carboxamide] |
| 7.35 | 6.15 | COc1cc(NC(=O)c2cc3c(C)nn(C4CCCCC4)c3s2)ccc1C(=O)NCCO [Example 150, 1-Cyclohexyl-N-(4-{[(2-hydroxyethyl)amino]carbonyl}-3-methoxyphenyl)-3-methyl-1H-thieno[2,3-c]pyrazole-5-carboxamide] |
| 8.30 | 5.74 | Cc1nn(C2CCCCC2)c2sc(C(=O)Nc3ccc(N4CCNC(=O)C4)cc3)cc12 [Example 341, 1-Cyclohexyl-3-methyl-N-[4-(3-oxo-1-piperazinyl)phenyl]-1H-thieno[2,3-c]pyrazole-5-carboxamide] |
| 7.11 | 5.55 | Cc1nn(C2CCOCC2)c2sc(C(=O)N[C@H]3CC[C@H](C(=O)N(C)C)CC3)cc12 [Example 349, N-{trans-4-[(Dimethylamino)carbonyl]cyclohexyl}-3-methyl-1-tetrahydro-2H-pyran-4-yl-1H-thieno[2,3-c]pyrazole-5-carboxamide] |
| 7.06 | 5.32 | Cc1nn(C2CCOCC2)c2sc(C(=O)Nc3ccc(N4CCC(O)CC4)c(F)c3)cc12 [Example 268, N-[3-Fluoro-4-(4-hydroxy-piperidinyl)phenyl]-3-methyl-1-tetrahydro-2H-pyran-4-yl-1H-thieno[2,3-c]pyrazole-5-carboxamide] |
| 7.12 | 5.40 | Cc1nn(C2CCCCC2)c2sc(C(=O)Nc3ccc(N(C)CCO)c(F)c3)cc12 [Example 125, 1-Cyclohexyl-N-{3-fluoro-4-[(2-hydroxyethyl)(methyl)amino]phenyl}-3-methyl-1H-thieno[2,3-c]pyrazole-5-carboxamide HCl salt] |
| 7.77 | 5.72 | Cc1nn(C2CCCCC2)c2sc(C(=O)N[C@H]3CC[C@H](N4CCN(C)C4=O)CC3)cc12 [Example 280] |
| 7.18 | 5.17 | Cc1nn(C2CCCCC2)c2sc(C(=O)NCCN3C(=O)CNC3=O)cc12 [Example 305, 1-Cyclohexyl-N-[2-(2,5-dioxo-1-imidazolidinyl)ethyl]-3-methyl-1H-thieno[2,3-c]pyrazole-5-carboxamide] |
| 8.00 | < 4.52 | CNS(=O)(=O)c1cccc(NC(=O)c2cc3c(C)nn(C4CCCCC4)c3s2)c1 [Example 111, 1-Cyclohexyl-3-methyl-N-{3-[(methylamino)sulfonyl]phenyl}-1H-thieno[2,3-c]pyrazole-5-carboxamide] |
| 7.66 | 5.82 | COC1CCN([C@H]2CC[C@H](NC(=O)c3cc4c(C)nn(C5CCCCC5)c4s3)CC2)CC1 [Example 168, 1-Cyclohexyl-N-[trans-4-(4-methoxyl-1-piperidinyl)cyclohexyl]-3-methyl-1H-thieno[2,3-c]pyrazole-5-carboxamide] |
| 8.51 | 6.12 | CNC1CCN([C@H]2CC[C@H](NC(=O)c3cc4c(C)nn(C5CCCCC5)c4s3)CC2)CC1 [Example 179, 1-Cyclohexyl-3-methyl-N-{trans-4-[4-(methylamino)-1-piperidinyl]-cyclohexyl}-1H-thieno[2,3-c]pyrazole-5-carboxamide] |

| pIC50 [1] | pIC50 [2] | Structure (SMILES) |
| --- | --- | --- |
| 7.30 | 5.15 | Cc1nn(C2CCCCC2)c2sc(C(=O)N[C@H]3CC[C@H](O)CC3)cc12 [Example 74, 1-Cyclohexyl-N-(trans-hydroxycyclohexyl)-3-methyl-1H-thieno[2,3-c]pyrazole-5-carboxamide] |
| 7.85 | 5.80 | Cc1nn(C2CCCCC2)c2sc(C(=O)N[C@H]3CC[C@H](N4C(=O)CCC4=O)CC3)cc12 [Example 273, 1-Cyclohexyl-N-[trans-4-(2,5-dioxo-1-pyrrolidinyl)cyclohexyl]-3-methyl-1H-thieno[2,3-c]pyrazole-5-carboxamide] |
| 7.32 | 5.03 | COCCN(C)[C@H]1CC[C@H](NC(=O)c2cc3c(C)nn(C4CCCCC4)c3s2)CC1 [Example 172, 1-cyclohexyl-N-{trans-4-[(2-methoxyethyl)(methyl)amino]-cyclohexyl}-3-methyl-1H-thieno[2,3-c]pyrazole-5-carboxamide] |
| 7.22 | 5.60 | CC(=O)N[C@H]1CC[C@H](NC(=O)c2cc3c(C)nn(C4CCCCC4)c3s2)CC1 [Example 80, N-[trans-4-(Acetylamino)cyclohexyl]-1-cyclohexyl-3-methyl-1H-thieno[2,3-c]pyrazole-5-carboxamide] |
| 7.82 | 5.33 | Cc1nn(C2CCCCC2)c2sc(C(=O)N[C@H]3CC[C@H](CN4C(=O)CNC4=O)C3)cc12 [Example 258, 1-Cyclohexyl-N-{(1S,3S)-3-[(2,5-dioxo-1-imidazolidinyl)methyl]cyclopentyl}-3-methyl-1H-thieno[2,3-c]pyrazole-5-carboxamide] |
| 7.77 | 5.44 | Cc1nn(C2CCCCC2)c2sc(C(=O)Nc3ccc(N4CCC(O)CC4)c(F)c3F)cc12 [Example 371, 1-Cyclohexyl-N-[2,3-difluoro-4-(4-hydroxy-1-piperidinyl)phenyl]-3-methyl-1H-thieno[2,3-c]pyrazole-5-carboxamide] |
| 7.05 | 4.92 | Cc1nn(C2CCOCC2)c2sc(C(=O)Nc3ccc(C(=O)N(C)C)cc3)cc12 [Example 255, N-{4-[(Dimethylamino)carbonyl]phenyl}-3-methyl-1 tetrahydro-2H-pyran-4-yl-1H-thieno[2,3-c]pyrazole-5-carboxamide] |
| 7.05 | 5.12 | Cc1nn(C2CCOCC2)c2sc(C(=O)Nc3ccc(N4CCN(C)CC4)cc3)cc12 [Example 196, 3-Methyl-N-[4-(4-methyl-1-piperazinyl)phenyl]-1-tetrahydro-2H-pyran-4-yl-1H-thieno[2,3-c]pyrazole-5-carboxamide] |
| 7.01 | 4.55 | Cc1nn(C2CCOCC2)c2sc(C(=O)Nc3ccc(N4CCN(C)CC4=O)cc3)cc12 [Example 440, 3-Methyl-N-[4-(4-methyl-2-oxo-piperazinyl)phenyl]-1-tetrahydro-2H-pyran-4-yl-1H-thieno[2,3-c]pyrazole-5-carboxamide] |
| 7.40 | 5.82 | COc1cc(NC(=O)c2cc3c(C)nn(C4CCCCCC4)c3s2)ccc1NC(C)=O [Example 115, N-[4-(Acetylamino)-3-methoxyphenyl]-1-cycloheptyl-3-methyl-1H-thieno[2,3-c]pyrazole-5-carboxamide] |
| 7.30 | 5.01 | Cc1nn(C2CCOCC2)c2sc(C(=O)N[C@H]3CC[C@H](N4CCC(C(=O)N(C)C)CC4)CC3)cc12 [Example 428, N-(trans-4-{4-[(Dimethylamino)carbonyl]-1-piperidinyl}cyclohexyl)-3-methyl-1-tetrahydro-2H-pyran-4-yl-1H-thieno[2,3-c]pyrazole-5-carboxamide] |
| 7.55 | 5.72 | Cc1nn(C2CCOCC2)c2sc(C(=O)Nc3ccc(N4CCNC4=O)nc3)cc12 [Example 261] |
| 7.07 | 5.26 | COC(=O)c1ccc(NC(=O)c2cc3c(C)nn(C4CCCCC4)c3s2)cn1 [Example 102, Methyl 5-{[(1-Cyclohexyl-3-methyl-1H-thieno[2,3-c]pyrazol-5-yl)-carbonyl]amino}-2-pyridinecarboxylate] |
| 7.12 | 5.02 | Cc1nn(C2CCCCC2)c2sc(C(=O)Nc3ccc(C(=O)NC(C)(C)C)cc3)cc12 [Example 51, N-{4-[(tert-Butylamino)carbonyl]phenyl}-1-cyclohexyl-3-methyl-1H-thieno[2,3-c]pyrazole-5-carboxamide] |
| 7.72 | 5.70 | CC(=O)N1CCc2cc(NC(=O)c3cc4c(C)nn(C5CCCCC5)c4s3)ccc21 [Example 11, N-(1-Acetyl-2,3-dihydro-1H-indo-5-yl)-1-cyclohexyl-3-methyl-1H-thieno[2,3-c]pyrazole-5-carboxamide] |
